From patent US20130196934A1, “COMPOSITION FOR PERINATAL AND NEONATAL STROKE” (priority 2010, published 2013)

Test system: red blood cell (RBC)
Test: Cell-based antioxidant protection in erythrocytes (CAP-e) assay
Details: human RBC, AAPH; biphasic dose response; FIG. 2
From the text: As a model cell type, red blood cell (RBC) was used. This is an inert cell type, in contrast to other cell types such as PMN cells as described in section 2, where pro-inflammatory compounds may induce the reactive oxidative burst, or anti-inflammatory compounds may perform cellular signaling and change the behavior of the PMN cell, at doses many times below levels of detection for antioxidants. This assay was developed particularly to be able to assess antioxidants from complex natural products in a cell-based system. Human RBC were washed repeatedly physiological saline, and then exposed to the test products. During the incubation with the test products, any antioxidant compounds able to cross the cell membrane will enter the interior of the RBC. Then the RBC are washed to remove compounds that were not absorbed by the cells, loaded with the DCF-DA dye, which turns fluorescent upon exposure to reactive oxygen species. Oxidation was triggered by addition of the peroxyl free radical generator AAPH. The fluorescence intensity was evaluated. The low fluorescence intensity of untreated control cells served as a baseline, and RBC treated with AAPH alone served as a positive control for maximum oxidative damage.

SMILES: O=C[C@H](O)[C@H](O)[C@H](O)CO [ribose, Ribose]
- antioxidant protection of erythrocytes from oxidative damage: protected the erythrocytes
